Laboratory results taken from article PMC11859184, “Synthesis and Evaluation of ^68Ga- and ^177Lu-Labeled [diF-Pro^14]Bombesin(6−14) Analogs for Detection and Radioligand Therapy of Gastrin-Releasing Peptide Receptor-Expressing Cancer” (Pharmaceuticals, 2025).
Where two headings read alike, the source gives them in different places.

Assay: Ex vivo biodistribution of 177Lu-labeled ligands in PC-3 tumor-bearing mice
Conditions: mouse, intravenous; for tissue uptake at 72 h: 72 h pi; for tissue uptake at 120 h: 120 h pi; for tissue uptake at 1 h: 1 h pi; for tissue uptake at 4 h: 4 h pi; for tissue uptake at 24 h: 24 h pi
Description: SPECT/CT imaging was conducted using an MI Labs (Houten, The Netherlands) U-SPECT-II/CT scanner with a custom-made ultra-high sensitivity big mouse collimator (2 mm pinhole size) following published procedure. The experiments were obtained in accordance with the same protocol established in the PET/CT imaging and ex vivo biodistributions section. The mice were used for SPECT/CT imaging and ex vivo biodistributions studies once the tumors reached a diameter of 5–8 mm. PC-3 tumor-bearing mice were sedated (2.5% isoflurane in O2) and injected with 31.4–36.9 MBq of the ^177Lu-labeled ligand through a lateral caudal tail vein. The mouse was imaged at 1, 4, 24, 72, and 120 h pi. At each time point, a 5 min CT scan was performed with 615 μA and 60 kV parameters for localization and attenuation, followed by two 30 min static SPECT scans in list mode with an energy window centered around 208 keV. The U-SPECT II software was used to reconstruct data, and the images were decay corrected to the time of injection with PMOD v 3.402 (PMOD Technologies GmbH, Fallanden, Switzerland).
For ex vivo biodistribution studies, the mice were injected with ~3–5 MBq of the ^177Lu-labeled ligand (n = 5). At 1, 4, 24, 72, and 120 h post-injection, the mice were anesthetized with 2% isoflurane, euthanized by CO2 inhalation, and the tissues/organs of interest were […] for radioactivity counting. The blocking study was performed at 1 h pi via co-injection of the ^177Lu-labeled ligand with 100 μg of [D-Phe^6,Leu-NHEt^13,des-Met^14]Bombesin(6–14).

[1] = heart, n = 5, read-out: Heart uptake
[2] = kidneys, n = 5, read-out: Kidneys uptake
[3] = large intestine, n = 5, read-out: Large intestine uptake
[4] = liver, n = 5, read-out: Liver uptake
[5] = lungs, n = 5, read-out: Lungs uptake
[6] = muscle, n = 5, read-out: Muscle uptake
[7] = pancreas, n = 5, read-out: Pancreas uptake
[8] = small intestine, n = 5, read-out: Small intestine uptake
[9] = spleen, n = 5, read-out: Spleen uptake
[10] = stomach, n = 5, read-out: Stomach uptake
[11] = testes, n = 5, read-out: Testes uptake

## CC(C)C[C@H](NC(=O)[C@H](Cc1cnc[nH]1)N(C)C(=O)CNC(=O)[C@@H](NC(=O)[C@H](C)NC(=O)[C@H](Cc1c[nH]c2ccccc12)NC(=O)[C@H](CCC(N)=O)NC(=O)[C@@H](Cc1ccccc1)NC(=O)CN1CCC(NC(=O)CN2CCN(CC(=O)O)CCN(CC(=O)O)CCN(CC(=O)O)CC2)CC1)C(C)(C)C)C(=O)N1CC(F)(F)C[C@H]1C(N)=O [[^177Lu]Lu-LW02060, metal not drawn]
[1]
  tissue uptake at 72 h: 0.01 %ID/g
  tissue uptake at 120 h: 0.01 %ID/g
kidneys, 100 ug, blocked (100 µg GRPR antagonist co-injected), read-out: Kidneys uptake
  tissue uptake at 1 h: 3.8 ± 0.85 %ID/g
[2]
  tissue uptake at 1 h: 3.62 ± 0.86 %ID/g
  tissue uptake at 4 h: 2.85 ± 0.29 %ID/g
  tissue uptake at 24 h: 1.06 ± 0.22 %ID/g
  tissue uptake at 72 h: 0.33 ± 0.03 %ID/g
  tissue uptake at 120 h: 0.15 ± 0.04 %ID/g
Large intestine, 100 ug, blocked (100 µg GRPR antagonist co-injected), read-out: Large intestine uptake
  tissue uptake at 1 h: 0.22 ± 0.04 %ID/g
[3]
  tissue uptake at 1 h: 0.49 ± 0.31 %ID/g
  tissue uptake at 4 h: 0.68 ± 0.12 %ID/g
  tissue uptake at 24 h: 0.43 ± 0.13 %ID/g
  tissue uptake at 72 h: 0.32 ± 0.14 %ID/g
  tissue uptake at 120 h: 0.05 ± 0.02 %ID/g
liver, 100 ug, blocked (100 µg GRPR antagonist co-injected), read-out: Liver uptake
  tissue uptake at 1 h: 0.27 ± 0.03 %ID/g
[4]
  tissue uptake at 1 h: 0.47 ± 0.19 %ID/g
  tissue uptake at 4 h: 0.27 ± 0.06 %ID/g
  tissue uptake at 24 h: 0.14 ± 0.07 %ID/g
  tissue uptake at 72 h: 0.06 ± 0.01 %ID/g
  tissue uptake at 120 h: 0.07 ± 0.02 %ID/g
lungs, 100 ug, blocked (100 µg GRPR antagonist co-injected), read-out: Lungs uptake
  tissue uptake at 1 h: 0.54 ± 0.17 %ID/g
[5]
  tissue uptake at 1 h: 0.57 ± 0.18 %ID/g
  tissue uptake at 4 h: 0.15 ± 0.04 %ID/g
  tissue uptake at 24 h: 0.06 ± 0.02 %ID/g
  tissue uptake at 72 h: 0.03 ± 0.01 %ID/g
  tissue uptake at 120 h: 0.02 %ID/g
muscle, 100 ug, blocked (100 µg GRPR antagonist co-injected), read-out: Muscle uptake
  tissue uptake at 1 h: 0.15 ± 0.05 %ID/g
[6]
  tissue uptake at 1 h: 0.13 ± 0.05 %ID/g
  tissue uptake at 4 h: 0.05 ± 0.01 %ID/g
  tissue uptake at 24 h: 0.01 %ID/g
  tissue uptake at 72 h: 0.01 %ID/g
pancreas, 100 ug, blocked (100 µg GRPR antagonist co-injected), read-out: Pancreas uptake
  tissue uptake at 1 h: 0.51 ± 0.12 %ID/g
[7]
  tissue uptake at 1 h: 2.64 ± 0.63 %ID/g
  tissue uptake at 4 h: 1.71 ± 0.08 %ID/g
  tissue uptake at 24 h: 1.04 ± 0.19 %ID/g
  tissue uptake at 72 h: 0.35 ± 0.08 %ID/g
  tissue uptake at 120 h: 0.11 ± 0.01 %ID/g
Small intestine, 100 ug, blocked (100 µg GRPR antagonist co-injected), read-out: Small intestine uptake
  tissue uptake at 1 h: 0.23 ± 0.06 %ID/g
[8]
  tissue uptake at 1 h: 0.67 ± 0.16 %ID/g
  tissue uptake at 4 h: 0.26 ± 0.04 %ID/g
  tissue uptake at 24 h: 0.13 ± 0.01 %ID/g
  tissue uptake at 72 h: 0.04 ± 0.01 %ID/g
  tissue uptake at 120 h: 0.02 ± 0.01 %ID/g
spleen, 100 ug, blocked (100 µg GRPR antagonist co-injected), read-out: Spleen uptake
  tissue uptake at 1 h: 0.2 ± 0.06 %ID/g
[9]
  tissue uptake at 1 h: 0.46 ± 0.2 %ID/g
  tissue uptake at 4 h: 0.13 ± 0.03 %ID/g
  tissue uptake at 24 h: 0.09 ± 0.02 %ID/g
  tissue uptake at 72 h: 0.07 ± 0.02 %ID/g
  tissue uptake at 120 h: 0.05 ± 0.01 %ID/g
stomach, 100 ug, blocked (100 µg GRPR antagonist co-injected), read-out: Stomach uptake
  tissue uptake at 1 h: 0.08 ± 0.03 %ID/g
[10]
  tissue uptake at 1 h: 0.29 ± 0.06 %ID/g
  tissue uptake at 4 h: 1.2 ± 1.55 %ID/g
  tissue uptake at 24 h: 0.12 ± 0.05 %ID/g
  tissue uptake at 72 h: 0.07 ± 0.02 %ID/g
  tissue uptake at 120 h: 0.03 ± 0.01 %ID/g
testes, 100 ug, blocked (100 µg GRPR antagonist co-injected), read-out: Testes uptake
  tissue uptake at 1 h: 0.14 ± 0.05 %ID/g
[11]
  tissue uptake at 1 h: 0.18 ± 0.03 %ID/g
  tissue uptake at 4 h: 0.04 ± 0.01 %ID/g
  tissue uptake at 24 h: 0.02 %ID/g
  tissue uptake at 72 h: 0.02 ± 0.01 %ID/g
  tissue uptake at 120 h: 0.01 ± 0.01 %ID/g
